Laboratory results taken from PMC10138714, “Evaluation of Some Safety Parameters of Dual Histamine H3 and Sigma-2 Receptor Ligands with Anti-Obesity Potential” (International Journal of Molecular Sciences, 2023).
Blank lines part the entries; values can stand above or below the compound they belong to.

How the values were obtained:
[1] = test system: normotensive rats; test: Blood pressure in anesthetized normotensive rats (carotid artery cannulation); assay type: in vivo, male Wistar rats; conditions: single i.p. 10 mg/kg b.w., 30–60 min after administration
Method: (§1) Blood pressure measurement and ECG were performed on male Wistar rats weighing 200–220 g (six months old). Locomotor activity and chimney tests were performed on adult male Albino Swiss (CD-1) mice weighing 18–22 g ([…]). The animals were obtained from an accredited animal house at the Faculty of Pharmacy, Jagiellonian University Medical College, Krakow, Poland. The experimental groups consisted of 6–8 animals. The animals were housed in constant temperature (22–24 °C) and humidity (40–60%) facilities, exposed to 12:12 h light/dark cycles, and were maintained on a standard pellet diet with tap water available ad libitum. Rats and mice were housed in pairs or 8 animals per home cage, respectively.
Rats were anesthetized with thiopental (70 mg/kg) via i.p. injection. The left carotid artery was cannulated with polyethylene tubing filled with a heparin solution in saline to facilitate pressure measurements using a PowerLab Apparatus (ADInstruments, Sydney, Australia). After a 20 min stabilization period, the test compounds were administered i.p. at a dose of 10 mg/kg b.w. in a constant volume of 1 mL/kg b.w. Blood pressure was recorded immediately before administration and 5, 10, 15, 20, 30, 40, 50, and 60 min after the administration of the test compound [47].

[2] = test system: rats; test: Heart rate and ECG intervals in rats; assay type: in vivo, male Wistar rats; conditions: 10 mg/kg i.p.
Method: as §1
In vivo electrocardiographic measurements were performed using an ASPEL ASCARD B5 apparatus, standard lead II, and a paper speed of 50 mm/s. The study was carried out after a single administration of the test compounds (10 mg/kg i.p.). […] The following parameters were then calculated and analyzed: duration of PQ, QT, QRS, RR intervals, and heart rate.

[3] = test system: mice; test: Locomotor activity in mice (activity cages, photobeam breaks); assay type: in vivo, male Albino Swiss (CD-1) mice; conditions: vs vehicle group
Method: as §1
Locomotor activity was individually recorded for each animal using specifically designed activity cages made of clear Perspex (40 cm × 40 cm × 31 cm, Activity Cage 7441, Ugo Basile, Italy). The cages were supplied with I.R. horizontal beam emitters connected to a counter that records the light-beam interruptions. The compounds suspensions were administered as i.p. injections 30 min before testing. Control animals received injections of vehicles. Each mouse was placed in a cage for a 30 min habituation period. After that time, the number of breaks in the photobeams was measured for 5 min, which is the same time as the observation period used in other tests.

[4] = target: σ2R; set-up: method as in PMID 34908391; conditions: cited from earlier work
[5] = test system: mice; test: Motor coordination in the chimney test; assay type: in vivo, male Albino Swiss (CD-1) mice; conditions: chimney test, 30 min after injection, n = 8
Method: as §1
The effect of tested compounds on motor impairment were quantified with the chimney test of Boissier et al. (1960). The mice were trained before the test, and only the animals able to get out of the chimney within 1 min were used at the experimental stage. The selected mice were placed in a 25 cm-long and 2.5 cm in diameter […] tube, which was reversed so that the mice could leave it only by climbing up backward until they reached the other end. The test was performed 30 min after injection (i.p.) of the examined compounds. Motor impairment was indicated by the inability of the animals to climb up backwards in the transparent tube within 60 s.

[6] = target: σ1R; set-up: method as in PMID 34908391; conditions: cited from earlier work
[7] = target: H3R; set-up: method as in PMID 34908391; conditions: cited from earlier work
[8] = target: T1, human ERG potassium channel (Kv11.1) (Homo sapiens, UniProt Q12809); test: Whole-cell automated patch clamp (QPatch16X), inhibition of hERG currents; assay type: cell-based
T1 construct: expressed in transfected cells
Method: Electrophysiology experiments were performed on a QPatch16X automatic patch clamp platform (Sophion Bioscience, Ballerup, Denmark). Chinese hamster ovary (CHO) cells stably expressing the human ERG potassium channel (Kv11.1) were cultured using standard procedures. On the day of the experiment, cells were collected from the culture flask using TrypLE Express solution (Life Technologies, Thermo Fisher Scientific, Carlsbad, California, United States) and resuspended in EX-CELL ACF CHO serum-free medium (Merck KGaA, Sigma-Aldrich, Darmstadt, Germany), supplemented with 25 mM HEPES, 100 U/mL penicillin/streptomycin, and 0.04 mg/mL soybean trypsin inhibitor (all components from Sigma Aldrich).
The cells were placed in the lidless microtube and located onboard the automated electrophysiology instrument, where they were automatically relocated to a built-in centrifuge.
Cells were transferred to pipetting wells of single-use 16-channel planar patch chip plates (QPlate 16X, Sophion Bioscience, Ballerup, Denmark) and gigaseals were formed upon application of a combined suction/voltage protocol in a standard protocol supplied by Sophion Bioscience for CHO cells. Once the whole-cell mode was obtained, the cells were kept in a holding potential of -90 mV between the programmed stimulation protocols.
Whole-cell potassium currents were measured in response to repeatedly executed voltage protocols constituted of the following steps: brief clamping to −50 mV (200 ms), subsequent depolarization to 20 mV for 4000 ms, and final repolarization to −50 mV when the outward tail current was measured for 4000 ms.
The average current peak values determined in the presence of particular concentrations of the compound tested were subjected to a sigmoidal dose–response curve fitting, where the bottom plateau parameter was constrained to 0. The IC50 values were then calculated from the obtained sigmoidal dose–response curves. Data were analyzed using QPatch Assay Software (v5.0, Sophion Bioscience, Ballerup, Denmark) and represent the mean of three experiments carried out on distinct cells.

[9] = test system: rats fed a palatable diet; test: Plasma AlaT, AspaT, gGT and ALP activity after repeated administration in rats fed a palatable diet; assay type: in vivo; conditions: 10 mg/kg b.w. i.p. repeated
Method: Standard diet ( 8% fats, 67% carbohydrates, and 25% proteins) contained 100 g feed—280 kcal. Rats fed a palatable diet had access to a diet consisting of milk chocolate with nuts, cheese, salted peanuts, and 7% condensed milk and simultaneously to standard feed (Labofeed B, Morawski Manufacturer Feed, Kcynia, Poland) for 4 weeks. The feeding was not in any way forced, and rats decided themselves when, what, and how much to eat. A palatable diet contained 100 g of peanuts—612 kcal; 100 mL of condensed milk—131 kcal; 100 g of milk chocolate—529 kcal; and 100 g of cheese—325 kcal.
The study evaluating the activities of alanine aminotransferase (AlaT), aspartate aminotransferase (AspaT), gamma-glutamyl transpeptidases (gGT), and alkaline phosphatase (ALP) was carried out after completing the excessive eating model experiments described in our previous work. Compounds were administered for twenty-eight days at a dose of 10 mg/kg b.w./day. On the 31st day of the experiment, 20 min after i.p. administration of heparin (5000 units/rat) and thiopental (70 mg/kg b.w.), blood was collected from the left carotid artery and then centrifuged at 600× g (15 min, 4 °C) in order to obtain the plasma. To determine the activities of AlaT, AapaT, gGT, and ALP in the plasma samples, a standard enzymatic spectrophotometric test (Biomaxima S.A., Lublin, Poland) was used.

[10] = target: sigma-2 receptors; set-up: method as in earlier work; conditions: cited from earlier work

T1 sequence (Q12809 whole entry): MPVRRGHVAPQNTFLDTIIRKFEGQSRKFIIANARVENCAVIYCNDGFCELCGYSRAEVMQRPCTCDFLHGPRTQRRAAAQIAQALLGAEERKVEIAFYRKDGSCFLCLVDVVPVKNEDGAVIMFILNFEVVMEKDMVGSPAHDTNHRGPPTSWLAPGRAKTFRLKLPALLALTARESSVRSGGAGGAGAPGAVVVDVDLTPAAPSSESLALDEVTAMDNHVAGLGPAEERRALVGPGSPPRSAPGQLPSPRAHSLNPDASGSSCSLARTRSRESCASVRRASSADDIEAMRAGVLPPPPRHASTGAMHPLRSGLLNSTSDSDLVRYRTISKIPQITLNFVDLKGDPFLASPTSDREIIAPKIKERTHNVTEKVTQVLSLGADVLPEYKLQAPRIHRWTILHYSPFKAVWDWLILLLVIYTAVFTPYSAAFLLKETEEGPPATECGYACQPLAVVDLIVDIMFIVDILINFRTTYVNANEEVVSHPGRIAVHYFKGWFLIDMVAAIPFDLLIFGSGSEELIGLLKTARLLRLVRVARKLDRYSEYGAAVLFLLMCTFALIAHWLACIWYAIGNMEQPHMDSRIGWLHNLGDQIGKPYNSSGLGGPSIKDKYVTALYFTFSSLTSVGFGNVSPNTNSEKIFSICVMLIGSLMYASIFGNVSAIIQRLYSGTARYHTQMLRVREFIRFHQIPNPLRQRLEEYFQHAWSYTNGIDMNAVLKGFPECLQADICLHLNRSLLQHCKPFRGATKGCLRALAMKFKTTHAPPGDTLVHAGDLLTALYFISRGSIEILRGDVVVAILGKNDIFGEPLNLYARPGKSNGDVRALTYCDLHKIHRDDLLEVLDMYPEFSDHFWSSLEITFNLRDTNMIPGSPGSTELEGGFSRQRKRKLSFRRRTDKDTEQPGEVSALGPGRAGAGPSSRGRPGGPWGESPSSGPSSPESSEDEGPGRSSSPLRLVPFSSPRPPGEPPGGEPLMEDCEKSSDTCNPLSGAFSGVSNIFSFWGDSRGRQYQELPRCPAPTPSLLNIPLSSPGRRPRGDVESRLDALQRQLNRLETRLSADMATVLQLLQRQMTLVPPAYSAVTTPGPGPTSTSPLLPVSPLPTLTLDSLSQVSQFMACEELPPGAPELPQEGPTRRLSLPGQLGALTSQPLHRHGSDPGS

Locomotor activity ([3]; single i.p. 10 mg/kg b.w., 30 min before test): significantly increased
Locomotor activity ([3]; single i.p. 30 mg/kg b.w.): No significant changes
% of Mice Impaired ([5]; 10 mg/kg i.p.): 0%
% of Mice Impaired ([5]; 20 mg/kg i.p.): 12.5%
% of Mice Impaired ([5]; 30 mg/kg i.p.): 12.5%
Plasma AlaT activity ([9]; vs vehicle control fed palatable feed): lower
Plasma ALP activity ([9]; vs vehicle group with palatable feed): lower plasma ALP activity
Structure (SMILES): CCC(=O)c1ccc(OCCCCCCCCN2CCN(c3ccncc3)CC2)cc1 [KSK-74]
Decrease of diastolic blood pressure [1]: 10–13 mmHg
Decrease of systolic blood pressure [1]: approx. 12 mmHg
Heart rate ([2]; time 0 min): 381.8 ± 19.9 beats/min
PQ ([2]; time 0 min): 56.3 ± 4.1 ms
QRS ([2]; time 0 min): 20.0 ± 0.0 ms
QT ([2]; time 0 min): 62.5 ± 4.3 ms
Heart rate ([2]; time 15 min): 356.3 ± 18.9 beats/min
PQ ([2]; time 15 min): 53.8 ± 4.1 ms
QRS ([2]; time 15 min): 20.0 ± 0.0 ms
QT ([2]; time 15 min): 60.0 ± 5.0 ms
Heart rate ([2]; time 30 min): 355.3 ± 32.2 beats/min
PQ ([2]; time 30 min): 56.3 ± 2.2 ms
QRS ([2]; time 30 min): 20.0 ± 0.0 ms
QT ([2]; time 30 min): 61.3 ± 6.5 ms
Heart rate ([2]; time 45 min): 364.6 ± 18.1 beats/min
PQ ([2]; time 45 min): 57.5 ± 2.5 ms
QRS ([2]; time 45 min): 20.0 ± 0.0 ms
QT ([2]; time 45 min): 65.0 ± 6.1 ms
Heart rate ([2]; time 60 min): 370.8 ± 23.9 beats/min
PQ ([2]; time 60 min): 55.0 ± 5.0 ms
QRS ([2]; time 60 min): 20.0 ± 0.0 ms
QT ([2]; time 60 min): 62.5 ± 8.3 ms
Ki [4]: 65.9 nM
Ki [6]: 274 nM
σ1/σ2 ([6]; ratio of Ki values): 4.16
Ki [7]: 38.9 nM
H3/σ1 ([7]; ratio of Ki values): 0.14
H3/σ2 ([7]; ratio of Ki values): 0.59
IC50 ([8]; CHO cells stably expressing human ERG, whole-cell, mean of three experiments, read-out: Mean IC50 ± SEM, inhibition of hERG currents): 3400 ± 289 nM
Inhibition of hERG compared with verapamil ([8]; relative to reference compound verapamil): almost seven times weaker

Structure (SMILES): Clc1ccc(CCCOCCCN2CCCCC2)cc1 [Pitolisant]
Ki [10]: 6.5 nM
